# Reference: patent US10899747B2, “Biaryl piperidine amide compounds and methods of use thereof” (Athenex, Inc., priority 2017, dated 2021)
# pIC50: −log10 of the molar value.
# System: IL-2
# Assay: PHA-IL2 (cell activation and cytokine analysis)
# Format: cell-based
# Conditions: 50% inhibition concentration class
# Protocol: Cells to be tested may include, but are not limited to, a) Jurkat (a transformed human T cell leukemia), b) whole blood isolated from human or rodent sources, c) peripheral blood mononuclear cells (PBMC) freshly isolated from human or rodent whole blood, or d) purified fractions of PBMC (e.g., CD4 T cells). Cells are plated in 96-well plates at a final density of 1.0-2.0×10^6 cells/ml in 150 ul of assay medium (RPMI+0.5% fetal calf serum). Test compounds are included at a final concentration of ≤20 uM and generally pre-incubated with cells for 30 minutes prior to stimulation. An appropriate stimulus is added, including but not limited to, a) phytohemagglutinin (PHA), b) phorbol myristate acetate (PMA) and ionomycin, or c) stimulatory antibodies to the T cell receptor (TCR) complex (e.g., anti-CD3ε) and CD28. Cell cultures are stimulated for 24-48 hours in a humidified incubator (37 degrees C./5% CO2). A fraction of the culture supernatant is than harvested from each well and assayed for the presence of appropriate cytokine using standard ELISA. Cytokines to be analyzed may include IL-2, IL-4, IL-10, IL-17, IL-22, IFNγ, and/or TNFα. If required, the number of cytokine producing cells can be determined using intracellular staining and flow cytometry. […]
row,SMILES,pIC50
1,O=C(COc1ccccc1-c1ccccc1)N1CCC(CCc2cc(C(F)(F)F)cc(C(F)(F)F)c2)CC1 [Compound 117],> 6.00
2,O=C(COc1ccccc1-c1ccccc1)N1CCC(CCc2ccc(F)c(F)c2)CC1 [Compound 120],> 6.00
3,COc1ccccc1CCC1CCN(C(=O)COc2ccccc2-c2ccccc2)CC1 [Compound 126],5.00 to 6.00
4,CC(Oc1ccccc1-c1ccccc1)C(=O)N1CCC(CCc2ccc3c(c2)OCO3)CC1 (stereo not shown) [Compound 153],4.30 to 5.00
5,CCCC(Oc1ccccc1-c1ccccc1)C(=O)N1CCC(CCc2ccc3c(c2)OCO3)CC1 (stereo not shown) [Compound 154],4.30 to 5.00
6,Cc1ccccc1-c1ccccc1OCC(=O)N1CCC(CCc2ccc3c(c2)OCO3)CC1 [Compound 155],5.00 to 6.00
7,CCc1ccc(-c2ccccc2OCC(=O)N2CCC(CCc3ccc4c(c3)OCO4)CC2)cc1 [Compound 156],5.00 to 6.00
8,O=C(O)c1ccc(-c2ccccc2OCC(=O)N2CCC(CCc3ccc4c(c3)OCO4)CC2)cc1 [Compound 157],4.30 to 5.00
9,O=C(O)c1cccc(-c2ccccc2OCC(=O)N2CCC(CCc3ccc4c(c3)OCO4)CC2)c1 [Compound 158],4.30 to 5.00
10,CCOC(=O)c1cccc(-c2ccccc2OCC(=O)N2CCC(CCc3ccc4c(c3)OCO4)CC2)c1 [Compound 159],5.00 to 6.00
11,O=C(COc1ccccc1-c1cccc(O)c1)N1CCC(CCc2ccc3c(c2)OCO3)CC1 [Compound 160],5.00 to 6.00
12,O=C(COc1ccccc1-c1ccnc(N2CCOCC2)c1)N1CCC(CCc2ccc3c(c2)OCO3)CC1 [Compound 161],5.00 to 6.00
13,NC(=O)c1cccc(-c2ccccc2OCC(=O)N2CCC(CCc3ccc4c(c3)OCO4)CC2)c1 [Compound 162],5.00 to 6.00
14,COc1cccc(-c2ccccc2OCC(=O)N2CCC(CCc3ccc4c(c3)OCO4)CC2)c1 [Compound 163],5.00 to 6.00
15,O=C(COc1ccccc1-c1ccc(F)cc1)N1CCC(CCc2ccc3c(c2)OCO3)CC1 [Compound 164],5.00 to 6.00
16,O=C(COc1ccccc1-c1ccccc1Cl)N1CCC(CCc2ccc3c(c2)OCO3)CC1 [Compound 165],> 6.00
17,N#Cc1ccc(-c2ccccc2OCC(=O)N2CCC(CCc3ccc4c(c3)OCO4)CC2)cc1 [Compound 166],> 6.00
18,Cc1cccc(-c2ccccc2OCC(=O)N2CCC(CCc3ccc4c(c3)OCO4)CC2)c1 [Compound 167],5.00 to 6.00
19,CCN(CC)C(=O)c1ccc(-c2ccccc2OCC(=O)N2CCC(CCc3ccc4c(c3)OCO4)CC2)cc1 [Compound 168],5.00 to 6.00
20,O=C(COc1ccccc1-c1ccc(O)cc1)N1CCC(CCc2ccc3c(c2)OCO3)CC1 [Compound 170],5.00 to 6.00
21,CN(C)CCCOc1ccc(-c2ccccc2OCC(=O)N2CCC(CCc3ccc4c(c3)OCO4)CC2)cn1 [Compound 171],4.30 to 5.00
22,O=C(NCCO)c1cccc(-c2ccccc2OCC(=O)N2CCC(CCc3ccc4c(c3)OCO4)CC2)c1 [Compound 172],4.30 to 5.00
23,O=C(COc1ccccc1-c1ccc2c(c1)OCCO2)N1CCC(CCc2ccc3c(c2)OCO3)CC1 [Compound 173],5.00 to 6.00
24,O=C(COc1ccccc1-c1ccc2nonc2c1)N1CCC(CCc2ccc3c(c2)OCO3)CC1 [Compound 174],5.00 to 6.00
25,COc1ccc(CCC2(O)CCN(C(=O)COc3ccccc3-c3ccccc3)CC2)cc1 [Compound 175],4.30 to 5.00
26,COc1ccc(CCC2(O)CCN(C(=O)COc3ccc(F)cc3-c3ccccc3)CC2)cc1 [Compound 176],4.30 to 5.00
27,O=C(COc1ccccc1-c1ccccc1F)N1CCC(CCc2ccc3c(c2)OCO3)CC1 [Compound 177],5.00 to 6.00
28,O=C(COc1ccccc1-c1ccc(OC(F)(F)F)cc1)N1CCC(CCc2ccc3c(c2)OCO3)CC1 [Compound 178],5.00 to 6.00

row,SMILES,pIC50
1,O=C(COc1ccccc1-c1cccc(OC(F)(F)F)c1)N1CCC(CCc2ccc3c(c2)OCO3)CC1 [Compound 179],5.00 to 6.00
2,COc1ccccc1-c1ccccc1OCC(=O)N1CCC(CCc2ccc3c(c2)OCO3)CC1 [Compound 180],5.00 to 6.00
3,NS(=O)(=O)c1ccc(-c2ccccc2OCC(=O)N2CCC(CCc3ccc4c(c3)OCO4)CC2)cc1 [Compound 181],4.30 to 5.00
4,O=C(NCCO)c1ccc(-c2ccccc2OCC(=O)N2CCC(CCc3ccc4c(c3)OCO4)CC2)cc1 [Compound 182],4.30 to 5.00
5,NC(=O)c1ccc(-c2ccccc2OCC(=O)N2CCC(CCc3ccc4c(c3)OCO4)CC2)cc1 [Compound 183],4.30 to 5.00
6,O=C(COc1ccccc1-c1ccccc1OC(F)(F)F)N1CCC(CCc2ccc3c(c2)OCO3)CC1 [Compound 184],4.30 to 5.00
7,CCN(CC)C(=O)c1cccc(-c2ccccc2OCC(=O)N2CCC(CCc3ccc4c(c3)OCO4)CC2)c1 [Compound 185],4.30 to 5.00
8,CCOc1ccc(-c2ccccc2OCC(=O)N2CCC(CCc3ccc4c(c3)OCO4)CC2)cc1 [Compound 186],5.00 to 6.00
9,O=C(COc1ccccc1-c1cccc(F)c1)N1CCC(CCc2ccc3c(c2)OCO3)CC1 [Compound 187],5.00 to 6.00
10,N#Cc1cc(-c2ccccc2OCC(=O)N2CCC(CCc3ccc4c(c3)OCO4)CC2)ccc1F [Compound 188],> 6.00
11,COc1ccc(-c2ccccc2OCC(=O)N2CCC(CCc3ccc4c(c3)OCO4)CC2)cc1 [Compound 189],5.00 to 6.00
12,O=C(COc1ccccc1-c1ccc(Cl)cc1)N1CCC(CCc2ccc3c(c2)OCO3)CC1 [Compound 190],> 6.00
13,COc1ncccc1-c1ccccc1OCC(=O)N1CCC(CCc2ccc3c(c2)OCO3)CC1 [Compound 191],5.00 to 6.00
14,N#Cc1cccc(-c2ccccc2OCC(=O)N2CCC(CCc3ccc4c(c3)OCO4)CC2)c1 [Compound 192],5.00 to 6.00
15,O=C(COc1ccccc1-c1ccc(F)nc1)N1CCC(CCc2ccc3c(c2)OCO3)CC1 [Compound 193],> 6.00
16,O=C(COc1ccccc1-c1cccnc1)N1CCC(CCc2ccc3c(c2)OCO3)CC1 [Compound 194],5.00 to 6.00
17,Nc1ccc(-c2ccccc2OCC(=O)N2CCC(CCc3ccc4c(c3)OCO4)CC2)cc1 [Compound 195],4.30 to 5.00
18,O=C(O)c1cncc(-c2ccccc2OCC(=O)N2CCC(CCc3ccc4c(c3)OCO4)CC2)c1 [Compound 196],4.30 to 5.00
19,N#CCc1ccc(-c2ccccc2OCC(=O)N2CCC(CCc3ccc4c(c3)OCO4)CC2)cc1 [Compound 197],> 6.00
20,O=C(c1ccccc1)c1ccc(-c2ccccc2OCC(=O)N2CCC(CCc3ccc4c(c3)OCO4)CC2)cc1 [Compound 198],> 6.00
21,COc1ccc(-c2ccccc2OCC(=O)N2CCC(CCc3ccc4c(c3)OCO4)CC2)cn1 [Compound 199],> 6.00
22,O=C(COc1ccccc1-c1cc(F)c(F)c(F)c1)N1CCC(CCc2ccc3c(c2)OCO3)CC1 [Compound 200],> 6.00
23,O=C(COc1ccccc1-c1cccc(Cl)c1)N1CCC(CCc2ccc3c(c2)OCO3)CC1 [Compound 201],> 6.00
24,Cc1ccc(-c2ccccc2OCC(=O)N2CCC(CCc3ccc4c(c3)OCO4)CC2)cc1 [Compound 202],5.00 to 6.00
25,O=C(COc1ccccc1-c1ccc(C(F)(F)F)cc1)N1CCC(CCc2ccc3c(c2)OCO3)CC1 [Compound 203],> 6.00
26,O=C(COc1ccccc1-c1cccc(C(F)(F)F)c1)N1CCC(CCc2ccc3c(c2)OCO3)CC1 [Compound 204],> 6.00
27,C=C(C)c1cccc(-c2ccccc2OCC(=O)N2CCC(CCc3ccc4c(c3)OCO4)CC2)c1 [Compound 205],5.00 to 6.00
